Measurements from patent publication US20250388623A1, “PEPTIDE INHIBITOR AND USE THEREOF” (CHENGDU BRILLIANT INSPIRATION BIOTHERAPEUTICS CO., LTD, priority 2022, published 2025).

Columns and labels:
[1] = test system: human breast cancer MCF7 cells; assay: Transwell tumor cell migration, co-culture with PMA-differentiated THP-1 cells; assay type: cell-based; settings: 100 μM polypeptide 48 h, co-culture 48 h; negative control group = 100.00
Procedure: (§1) This Example was to assess the effects of polypeptides on the migration abilities of different tumor cells. The experiment was performed using transwell nested chambers (membrane pore size of 8 μm), where THP-1 cells were inoculated in the lower chamber and treated with 300 nM PMA (Sigma, Catalog No.P1585) for differentiation and chamber-wall adherence, and then treated with 100 μM polypeptide (in the negative control, an equal volume of solvent was added) for 48 hours. The upper chamber was inoculated with tumor cells, human lung adenocarcinoma A549 cells (American Typical Culture Collection, ATCC, CCL-18), and co-cultured for 24 hours; or inoculated with human liver cancer HepG2/C3A cells (ATCC, CRL-10741), and co-cultured for 24 h; or inoculated with human breast cancer MCF7 cells (ATCC, HTB-22), and co-cultured for 48 h. After that, the upper chamber was taken out, fixed with 70% ethanol for 10 min and washed, then stained with Giemsa staining solution (Beyotime, Catalog No.C0131) for 45 min. After washing with double distilled water 2-3 times, unmigrated cells were wiped off the upper layer with a cotton swab. After the chamber was dried, it was observed under a microscope, and five different fields of view under a 100× magnification were randomly selected for counting and statistics. The polypeptides had significant inhibitory effects on the migratory abilities of human lung adenocarcinoma cells, human liver cancer cells, and human breast cancer cells.

[2] = test system: human lung adenocarcinoma A549 cells; assay: as above; assay type: cell-based; settings: 100 μM polypeptide 48 h, co-culture 24 h; negative control group = 100.00
Procedure: as §1

[3] = test system: human liver cancer HepG2/C3A cells; assay: as above; assay type: cell-based; settings: 100 μM polypeptide 48 h, co-culture 24 h; negative control group = 100.00
Procedure: as §1

[4] = test system: active TGF-β; assay: Active TGF-β level in lung tissue, bleomycin (BLM) mouse lung fibrosis model; assay type: in vivo; settings: single intratracheal dose 3 mg/kg on Day 7, lung 24 h later; BLM model group = 100.00
Excerpt: This Example was to evaluate the inhibitory effect of polypeptides on active TGF-β level during the progression of fibrotic disease. In this Example, a mouse lung fibrosis model induced by bleomycin (BLM) was used. The BLM animal model offers advantages, including a close mimicry of the pathological features of the primary disease, ease of use, and good reproducibility. It is the most representative model for studying the mechanisms of fibrosis and is recommended for evaluating drug efficacy.
In this Example, 6 to 8-week-old male C57/6J mice weighing 18-20 g were used as subjects for the study. The experimental animals were randomized into groups, 8 animals in each group, and the expressions of pro-fibrotic factors were detected at the endpoint of the experiment (Day 8) in this model. In this example, an aerosol intratracheal metered dosing applicator (Yuyan, model YAN30012) was utilized for intratracheal administration during the modeling and drug delivery processes. The dosing was performed as follows (An Official American Thoracic Society Workshop Report: Use of Animal Models for the Preclinical Assessment of Potential Therapies for Pulmonary Fibrosis, Am J Respir Cell Mol Biol Vol 56, Iss 5, pp 667-679, May 2017): The experimental animals were anesthetized with aerosolized isoflurane (RWD, lot no. 22041701) using a small animal anesthesia machine (RWD, model R500IE). Animals in the appropriate anesthetic state were positioned supine with heads facing up and bodies tilted on an operating platform (tilted at approximately) 60°, secured by their incisors. The practitioner gently lifted the tongue with tissue forceps in the right hand, pushing it outward and upward to open the animal's lower jaw. Holding the laryngoscope (Yuyan, model SR310-RW) in the left hand, the practitioner slid its anterior leaf-shaped blade along the midline of the tongue into the oral cavity until reaching the glottis, gently pressing the body and root of the tongue upward. The needle of the drug applicator was then inserted through the mouth into the glottis alongside the laryngoscope, and 50 μL of liquid was quickly injected. On the day of modeling (Day 1), the experimental animals were randomly assigned to groups and administered a 0.7 USP/kg dose of bleomycin solution (HanHui Pharmaceutical, Batch No. 20080511) via the tracheal route to induce the model. On Day 7, each peptide-treated group received a single intratracheal dose of 50 μL peptide drug (at a dosage of 3 mg/kg), while the model group was given an equal volume of solvent (saline, Kelong, Batch No. L221062501) as a control. Twenty-four hours after drug administration, the animals were dissected to collect lung tissue, which was ground in liquid nitrogen to extract total protein from the lung tissue. The active TGF-β content in the lung tissue of mice from each group was measured using the TGF-β ELISA kit (BOSTER, catalog number EK0515). The ratio of active TGF-β content between the peptide-treated group and the model group was calculated to evaluate the effect of the peptide on active TGF-β level.

[5] = test system: P-Smad2/3; assay: P-Smad2/3 content in lung tissue, BLM mouse fibrosis model; assay type: in vivo; settings: single intratracheal dose 3 mg/kg on Day 7, lung 24 h later; BLM model group = 100.00
Excerpt: This example aimed to evaluate the inhibitory effect of polypeptides on the TGF-β downstream signaling pathway during fibrosis progression. TGF-β intracellular signaling relies on the phosphorylation events of Smad family proteins. The increase in Smad2/3 phosphorylation levels is an important indicator that signal transduction has occurred in the TGF-β signaling pathway.
In this example, 6- to 8-week-old male C57/6J mice weighing 18-20 g were used as subjects for the study. The experimental animals were randomized into groups, eight animals in each group. In this example, intratracheal administration was performed using an aerosol intratracheal metered dosing applicator during both the modeling and drug delivery processes, as described in Example 4. On the day of modeling (Day 1), the experimental animals were randomly assigned to groups and administered a 0.7 USP/kg dose of bleomycin solution (HanHui Pharmaceutical, Batch No. 20080511) via the tracheal route to induce the model. On Day 7, each peptide-treated group received a single intratracheal dose of peptide drug at a dosage of 3 mg/kg, while the BLM model group was given an equal volume of solvent (saline) as a control. Twenty-four hours after drug administration, the animals were dissected, and the lung tissues were collected and frozen in liquid nitrogen for future use. Total protein from the lung tissue was extracted after grinding the tissue in liquid nitrogen, and the total P-Smad2/3 content in the tissue was measured by using P-Smad2/3 ELISA kit (CST, Catalog No. 12001C). The ratio of the P-Smad2/3 content between the peptide-treated group and the model group was calculated to evaluate the effect of the peptide on TGFβ signaling.

[6] = biological target: T1, binding of TSP-1 protein to CD36, a TSP-1 receptor protein (Homo sapiens, UniProt P07996); assay: ELISA: blocking of CD36 binding to TSP-1 protein; settings: 100 μM polypeptide, 0.25 μg/mL Fc-tagged CD36; blocking of CD36 binding to TSP-1
T1 construct: purchased novoprotein (TSP-1); R&D Systems (Fc-tagged CD36) CU45 (TSP-1); 1955-CD-050 (CD36-Fc)
T1 sequence (P07996 19-1170): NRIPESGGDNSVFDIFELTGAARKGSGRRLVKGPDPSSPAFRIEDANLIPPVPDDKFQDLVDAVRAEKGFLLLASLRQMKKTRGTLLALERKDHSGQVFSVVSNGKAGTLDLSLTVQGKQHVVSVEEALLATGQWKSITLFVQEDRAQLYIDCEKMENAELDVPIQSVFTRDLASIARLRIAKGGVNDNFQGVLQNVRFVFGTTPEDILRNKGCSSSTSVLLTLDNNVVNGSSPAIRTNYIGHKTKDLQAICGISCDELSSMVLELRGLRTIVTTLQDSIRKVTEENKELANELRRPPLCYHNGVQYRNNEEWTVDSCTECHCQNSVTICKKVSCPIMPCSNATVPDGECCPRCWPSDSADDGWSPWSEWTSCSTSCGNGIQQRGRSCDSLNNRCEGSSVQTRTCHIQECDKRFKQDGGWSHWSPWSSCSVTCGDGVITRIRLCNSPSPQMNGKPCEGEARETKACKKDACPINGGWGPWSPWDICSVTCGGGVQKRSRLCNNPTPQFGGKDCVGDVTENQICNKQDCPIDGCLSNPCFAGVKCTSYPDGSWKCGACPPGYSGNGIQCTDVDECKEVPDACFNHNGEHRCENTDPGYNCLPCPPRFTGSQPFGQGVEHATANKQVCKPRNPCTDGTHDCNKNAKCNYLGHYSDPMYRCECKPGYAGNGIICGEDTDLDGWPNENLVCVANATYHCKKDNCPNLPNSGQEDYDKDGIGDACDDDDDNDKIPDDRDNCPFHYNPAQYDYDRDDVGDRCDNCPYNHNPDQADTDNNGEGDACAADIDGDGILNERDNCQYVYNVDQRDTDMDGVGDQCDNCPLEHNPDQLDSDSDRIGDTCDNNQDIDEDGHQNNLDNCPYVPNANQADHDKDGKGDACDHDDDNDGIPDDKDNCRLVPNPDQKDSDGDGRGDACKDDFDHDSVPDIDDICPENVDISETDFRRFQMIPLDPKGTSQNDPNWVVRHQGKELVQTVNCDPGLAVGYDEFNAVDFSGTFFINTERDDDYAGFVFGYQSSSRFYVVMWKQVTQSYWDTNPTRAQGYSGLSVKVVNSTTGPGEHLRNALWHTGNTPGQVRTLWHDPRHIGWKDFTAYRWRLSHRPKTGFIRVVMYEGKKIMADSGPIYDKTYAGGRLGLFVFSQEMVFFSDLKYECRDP
Procedure, shortened: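 Plate-bound TSP-1 (2 μg/mL coat) incubated 3 h at 37 °C with Fc-tagged CD36 (0.25 μg/mL final) ± polypeptide (100 μM final single-point; 0.5–100 μM for IC50); bound CD36 detected with FITC anti-Fc antibody fluorescence. Blocking rate = (control − treated)/control × 100%; IC50 from concentration dependence.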

| Substance | MCF7 migration Mean (%) [1] | A549 migration Mean (%) [2] | HEPG2/C3A migration Mean (%) [3] | active TGF-β content in lung tissue, ratio to model group, Mean(%) [4] | P-Smad2/3 content in lung tissue, ratio to model group, Mean(%) [5] | Blocking rate (Mean, %) [6] |
| --- | --- | --- | --- | --- | --- | --- |
| Ac-Gln-Asp-Ala-Glu-Asp-Asn-NH2 (Ac-QDAEDN-NH2) [SEQ ID NO: 05] | 42.55% | 63.92% | 74.72% | 74.15% | 72.35% | 15.07% |
| Ac-Thr-Gln-Asp-Ala-Glu-Asp-NH2 (Ac-TQDAED-NH2) [SEQ ID NO: 04] | 62.78% | 57.90% | 81.13% | 74.10% | 67.91% | 16.89% |
